# Test results published in ChEMBL document CHEMBL1759868, “Folate pro-drug of cystamine as an enhanced treatment for nephropathic cystinosis” (Bioorg Med Chem Lett, 2011).
# Calls of active or inactive are those of the source. The rule behind the calls is not given here.
# Columns and labels:
# [1] = Cytotoxicity against human cystinotic Fibroblast at 50 uM for 72 hrs by Alamar blue assay; type: cell-based
# Fibroblast = assay: Decrease in intracellular cystine level in human cystinotic Fibroblast at 50 uM for 24 hrs by thiol assay; type: functional, cell-based
Compound,Activity [1],Activity (Fibroblast)
Cl.NCCSSCCNC(=O)CC[C@H](NC(=O)c1ccc(NCc2cnc3nc(N)nc(O)c3n2)cc1)C(=O)NCCSSCCN,Non-toxic,Active
NCCS [CYSTEAMINE],Non-toxic,–
